{"source": "patent EP4667463A1", "about": "“DOMIDE MOLECULAR GLUE DERIVATIVE AND USE THEREOF” (CSPC Megalith Biopharmaceutical Co., Ltd., priority 2023, dated 2024)", "key": {"[1]": {"test_system": "HL-60", "test": "In vitro anti-tumor activity of molecular glue compounds, CellTiter-Lumi cell viability assay", "format": "cell-based", "settings": "Homo sapiens; HL-60 cells, 96 h incubation; read-out: Cell inhibitory activity (IC50 values) HL-60", "protocol": "(§1) Different tumor cells were all commercially available and used for evaluating the anti-tumor inhibitory activity of the compounds of the present disclosure. Various tumor cells were cultured until the cell confluency reached 80%-90%, with cell viability above 90% as determined by trypan blue exclusion. Then, the cells were plated. Specifically, after cell density optimization, 100 µL of each of the cell suspensions of HL-60 and SK-BR-3 cells (cell density: 3000 cells/well), Romas cells (cell density: 6000 cells/well), NCI-H929 cells (cell density: 4000 cells/well), and NCI-H82 cells (cell density: 5000 cells/well) was plated in a BeyoGold™ ultra-low attachment black clear-bottom 96-well plate (Cat. No.: FULA965-24pcs), and the plate was incubated overnight. The next day, after the adherent cells were adhered to the wall and suspension cells requiring aggregation were aggregated, 50 µL of culture medium was aspirated from each well of the 96-well plate. Then, the compounds diluted with the corresponding culture media were added. Specifically, the compounds were serially diluted at a 5-fold gradient starting from the highest concentration of 1 µM, with a final DMSO concentration of 1%o, and the test compounds were then added to the cell culture plate. The plate was incubated in an incubator at 37 °C with 5% carbon dioxide for 96 h. Before measurement, the CellTiter-Lumi™ luminescent cell viability assay reagent was equilibrated to room temperature in the dark. Then, 50 µL of the CellTiter-Lumi™ (Cat. No.: C0065XL) cell viability assay reagent was added to each well of the 96-well plate. The plate was shaken in the dark on a shaker at 300 rpm for 10 min to ensure complete cell lysis. After the reaction was completed, the luminescence was measured on a multi-mode microplate reader. The cell inhibition rate was determined according to the luminescence. Then, a cell viability curve was generated by Graphpad Prism 8.0, and the IC50 values were calculated. The compounds of the present disclosure were tested for activity by the method described above. Table 1. Cell inhibitory activity (IC50 values)"}, "[2]": {"test_system": "NCI-H82", "test": "In vitro anti-tumor activity of molecular glue compounds, CellTiter-Lumi cell viability assay", "format": "cell-based", "settings": "Homo sapiens; NCI-H82 cells, 96 h incubation; read-out: Cell inhibitory activity (IC50 values) NCI-H82", "protocol": "as §1"}, "[3]": {"test_system": "NCI-H929", "test": "In vitro anti-tumor activity of molecular glue compounds, CellTiter-Lumi cell viability assay", "format": "cell-based", "settings": "Homo sapiens; NCI-H929 cells, 96 h incubation; read-out: Cell inhibitory activity (IC50 values) NCI-H929", "protocol": "as §1"}, "[4]": {"test_system": "Romas", "test": "In vitro anti-tumor activity of molecular glue compounds, CellTiter-Lumi cell viability assay", "format": "cell-based", "settings": "Romas cells, 96 h incubation; read-out: Cell inhibitory activity (IC50 values) Romas", "protocol": "as §1"}, "[5]": {"test_system": "SK-BR-3", "test": "In vitro anti-tumor activity of molecular glue compounds, CellTiter-Lumi cell viability assay", "format": "cell-based", "settings": "Homo sapiens, SK-BR-3 cells", "protocol": "as §1"}, "[6]": {"molecular_target": "T1, GSPT1 protein (Homo sapiens, UniProt P15170+Q96SW2)", "T1 construct": "An HiBiT protein tag was added to the N-terminus of the endogenous GSPT1 protein of HEK293T cells by CRISPR gene editing technology; endogenous in cells; host or cells: HEK293T (CRISPR knock-in HiBiT-GSPT1 cell strain)", "T1 sequence (P15170 whole entry)": "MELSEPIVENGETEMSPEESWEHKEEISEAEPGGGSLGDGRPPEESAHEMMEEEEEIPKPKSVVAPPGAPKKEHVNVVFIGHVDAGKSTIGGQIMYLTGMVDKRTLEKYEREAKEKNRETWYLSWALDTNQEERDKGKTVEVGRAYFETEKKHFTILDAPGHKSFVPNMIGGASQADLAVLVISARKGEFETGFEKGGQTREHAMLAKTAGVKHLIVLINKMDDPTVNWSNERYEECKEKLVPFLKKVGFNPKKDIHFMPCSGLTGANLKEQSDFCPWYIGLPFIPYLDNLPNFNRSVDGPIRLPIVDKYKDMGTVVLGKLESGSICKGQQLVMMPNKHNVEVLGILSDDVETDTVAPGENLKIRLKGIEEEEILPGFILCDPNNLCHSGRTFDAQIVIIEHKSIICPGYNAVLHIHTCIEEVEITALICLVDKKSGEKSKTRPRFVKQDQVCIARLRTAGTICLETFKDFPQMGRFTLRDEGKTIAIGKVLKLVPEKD", "T1 sequence (Q96SW2 whole entry)": "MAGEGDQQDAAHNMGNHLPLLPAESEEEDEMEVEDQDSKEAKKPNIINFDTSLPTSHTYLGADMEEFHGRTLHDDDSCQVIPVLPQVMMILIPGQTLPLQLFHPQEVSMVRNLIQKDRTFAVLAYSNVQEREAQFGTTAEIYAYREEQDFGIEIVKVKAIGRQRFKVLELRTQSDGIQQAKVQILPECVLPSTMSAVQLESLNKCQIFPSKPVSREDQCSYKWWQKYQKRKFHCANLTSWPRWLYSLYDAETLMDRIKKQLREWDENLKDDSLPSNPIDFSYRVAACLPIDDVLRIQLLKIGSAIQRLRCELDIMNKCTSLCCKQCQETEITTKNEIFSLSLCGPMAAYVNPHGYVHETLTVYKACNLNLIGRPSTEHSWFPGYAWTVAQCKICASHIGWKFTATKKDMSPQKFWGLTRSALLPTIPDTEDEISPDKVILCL", "T1 sequence (Q16531 whole entry partner)": "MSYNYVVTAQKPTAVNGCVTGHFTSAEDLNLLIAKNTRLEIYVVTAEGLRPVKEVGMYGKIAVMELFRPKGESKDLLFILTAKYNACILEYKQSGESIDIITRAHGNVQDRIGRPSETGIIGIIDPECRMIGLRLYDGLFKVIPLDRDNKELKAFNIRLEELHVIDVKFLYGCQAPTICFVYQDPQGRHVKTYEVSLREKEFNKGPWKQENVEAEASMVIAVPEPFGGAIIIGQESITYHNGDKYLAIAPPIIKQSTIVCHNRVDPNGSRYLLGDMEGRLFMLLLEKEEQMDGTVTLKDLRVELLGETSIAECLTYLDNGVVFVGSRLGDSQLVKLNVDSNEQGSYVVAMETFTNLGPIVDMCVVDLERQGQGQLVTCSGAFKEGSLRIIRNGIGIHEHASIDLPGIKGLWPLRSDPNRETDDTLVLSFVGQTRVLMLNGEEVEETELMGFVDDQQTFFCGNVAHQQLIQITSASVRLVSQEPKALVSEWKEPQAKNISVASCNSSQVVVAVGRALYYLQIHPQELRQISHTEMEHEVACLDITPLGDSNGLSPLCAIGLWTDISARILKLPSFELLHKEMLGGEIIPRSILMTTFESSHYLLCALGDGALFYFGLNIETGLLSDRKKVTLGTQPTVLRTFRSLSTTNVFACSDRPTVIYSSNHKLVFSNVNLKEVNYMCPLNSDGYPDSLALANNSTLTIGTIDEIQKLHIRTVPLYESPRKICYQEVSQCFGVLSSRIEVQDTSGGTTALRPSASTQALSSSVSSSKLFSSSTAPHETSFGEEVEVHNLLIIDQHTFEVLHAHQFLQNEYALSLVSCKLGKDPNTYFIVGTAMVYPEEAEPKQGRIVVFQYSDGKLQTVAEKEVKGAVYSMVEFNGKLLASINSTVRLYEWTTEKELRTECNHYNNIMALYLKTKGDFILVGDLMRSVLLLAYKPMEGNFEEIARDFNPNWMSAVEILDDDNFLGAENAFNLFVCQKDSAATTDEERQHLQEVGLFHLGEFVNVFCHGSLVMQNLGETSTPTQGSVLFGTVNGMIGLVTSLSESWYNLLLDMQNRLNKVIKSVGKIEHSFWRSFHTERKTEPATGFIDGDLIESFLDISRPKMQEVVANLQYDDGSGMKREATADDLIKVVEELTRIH", "test": "GSPT1 protein degradation, Nano-Glo HiBiT assay in HiBiT-GSPT1 HEK293T cells", "format": "cell-based", "settings": "24 h", "protocol": "This experiment was performed to evaluate the targeting property of the compounds. An HiBiT protein tag was added to the N-terminus of the endogenous GSPT1 protein of HEK293T cells by CRISPR gene editing technology, so as to construct a HiBiT-GSPT1 HEK293T stably transfected cell strain. HiBiT-GSPT1 HEK293T cells were cultured in DMEM containing 10% FBS and 1% PenStrep. When the cell confluency reached 80%-90%, the cells were digested with trypsin, pipetted into single cells, and resuspended in a corresponding culture medium to form a cell suspension. The cells were counted using Cell Countess (NanoEnTek, #Cat. EVE-MC2), and the cell viability was determined by trypan blue exclusion to ensure that the cell viability was above 90%. The cells were plated in a 384-well plate (Corning, #Cat. 3764) at 10,000 cells/40 µL of cell suspension per well, and cultured in an incubator at 37 °C with 5% CO2 overnight. The next day, the test compounds were added to the 384-well plate under conditions of 30 µM highest concentration, 5-fold serial dilution, and 1‰ DMSO. The plate was incubated in the incubator at 37 °C with 5% CO2 for another 24 h. Before measurement, the Nano-Glo HiBiT reagent was equilibrated to room temperature, the LgBiT protein was diluted with the Nano-Glo HiBiT Lytic buffer according to a dilution ratio of 1:100, and the Nano-Glo@HiBiT Lytic substrate was diluted to an appropriate volume according to a ratio of 1:50. After the cell culture plate was equilibrated at room temperature for 10 min, 40 µL of Nano-Glo HiBiT Lytic assay reagent was added to each well. The plate was shaken on a microplate shaker at a rotation speed of 300 rpm for 3 min in the dark. After the reaction was completed, the luminescencevalues were read on BMG PHERASTAR FS (BMG LRBTECH, Cat. No.: PHERAstar FSX), and the DC50 values were calculated using GraphPad Prism 8.0. Table 2. GSPT1 protein degradation"}, "[7]": {"test_system": "AsPc-1", "test": "Activity in cell strains with high expression of efflux pump proteins, cell viability assay", "format": "cell-based", "settings": "Homo sapiens, ASPC1, AsPc-1 cells, 96 h", "protocol": "(§2) Three types of cells used for evaluating the activity of the compounds of the present disclosure against a cell strain with high expression of efflux pump proteins were all purchased from Nanjing Cobioer Biosciences Co., Ltd., and all the cells were derived from ATCC (American Type Culture Collection). Various tumor cells were cultured until the cell confluency reached 80%-90%, with cell viability above 90% as determined by trypan blue exclusion. Then, the cells were plated. Specifically, after cell density optimization, 75 µL of each of three cell suspensions of SNU-5, HCT-15, and AsPc-1 cells (3000 cells/well) was inoculated into a BeyoGold™ ultra-low attachment black clear-bottom 96-well plate (Cat. No.: FULA965-24pcs), and the plate was incubated overnight in a cell incubator at 37 °C with carbon dioxide. The next day, after the cells adhered to the wall, 75 µL of the compounds diluted with the corresponding culture media were added. Specifically, the compounds were serially diluted at a 5-fold gradient starting from the highest concentration of 1 µM, with a final DMSO concentration of 1‰, and the test compounds were then added to the cell culture plate. The plate was incubated in an incubator at 37 °C with 5% carbon dioxide for 96 h. Before measurement, the CellTiter-Lumi™ luminescent cell viability assay reagent was equilibrated to room temperature in the dark. Then, 50 µL of the CellTiter-Lumi™ (Cat. No.: C0065XL) cell viability assay reagent was added to each well of the 96-well plate. The plate was shaken in the dark on a shaker at 300 rpm for 10 min to ensure complete cell lysis. After the reaction was completed, the chemiluminescence intensity was measured on a multi-mode microplate reader. The cell viability inhibition rate was determined according to the chemiluminescence intensity. Then, a cell viability curve was generated by Graphpad Prism 8.0, and the IC50 values were calculated. Table 3. Activity of the compounds of the present disclosure in cell strains with high expression of efflux pump proteins (IC50 value)"}, "[8]": {"test_system": "HCT-15", "test": "Activity in cell strains with high expression of efflux pump proteins, cell viability assay", "format": "cell-based", "settings": "Homo sapiens, HCT-15 cells, 96 h", "protocol": "as §2"}, "[9]": {"test_system": "SNU-5", "test": "Activity in cell strains with high expression of efflux pump proteins, cell viability assay", "format": "cell-based", "settings": "Homo sapiens, SNU-5 cells, 96 h", "protocol": "as §2"}, "[10]": {"test": "in vitro", "settings": "human, microsomes", "quoted_text": "(§3) The final concentration of the substrate in the incubation system was 1 µM, and the incubation time was 60 min. Sampling was performed at 0 min, 5 min, 15 min, 30 min, and 60 min. The reaction was stopped with glacial acetonitrile containing an internal standard (testosterone-d3 at a concentration of 10 ng/mL). Verapamil was used as a positive control. […] The natural logarithm of the remaining percentage was subjected to linear fitting with time to determine the elimination rate constant (k)."}, "[11]": {"test": "in vitro", "settings": "monkey, microsomes", "quoted_text": "as §3"}, "[12]": {"test": "in vitro", "settings": "dog, microsomes", "quoted_text": "as §3"}, "[13]": {"test": "in vitro", "settings": "rat, microsomes", "quoted_text": "as §3"}, "[14]": {"test": "in vitro", "settings": "mouse, microsomes"}, "[15]": {"test": "Metabolic stability in liver microsomes", "settings": "Human liver microsomes, after 60 min of incubation", "quoted_text": "as §3"}, "[16]": {"test": "Metabolic stability in liver microsomes", "settings": "Monkey liver microsomes, after 60 min of incubation", "quoted_text": "as §3"}, "[17]": {"test": "Metabolic stability in liver microsomes", "settings": "Dog liver microsomes, after 60 min of incubation", "quoted_text": "as §3"}, "[18]": {"test": "Metabolic stability in liver microsomes", "settings": "Rat liver microsomes, after 60 min of incubation", "quoted_text": "as §3"}, "[19]": {"test": "Metabolic stability in liver microsomes", "settings": "Mouse liver microsomes, after 60 min of incubation"}, "[20]": {"settings": "96 h incubation, read-out: Cell inhibitory activity (IC50 values) SK-BR-3"}}, "note": "Read-outs that look alike come from different tables or passages of the source.", "data": [{"smiles": "CNCCOCCc1ccc(NC(=O)NCc2ccc3c(c2)CN(C2CCC(=O)NC2=O)C3=O)cc1Cl", "note": "(stereo not shown) [Smol006, reference compound]", "values": [{"measurement": "IC50", "setting": "[1]", "value": "0.01 to 0.05", "unit": "µM"}, {"measurement": "IC50", "setting": "[2]", "value": "0.05 to 0.1", "unit": "µM"}, {"measurement": "IC50", "setting": "[3]", "value": "0.05 to 0.1", "unit": "µM"}, {"measurement": "IC50", "setting": "[4]", "value": "> 0.1", "unit": "µM"}, {"measurement": "IC50", "setting": "[5]; [20]", "value": "> 0.1", "unit": "µM"}, {"measurement": "IC50", "setting": "[5]; read-out: SK-BR-3 IC50", "value": 0.0323, "unit": "µM"}, {"measurement": "DC50", "setting": "[6]", "value": 0.274, "unit": "µM"}, {"measurement": "IC50", "setting": "[7]", "value": "0.05 to 0.2", "unit": "µM"}, {"measurement": "IC50", "setting": "[8]", "value": "> 1", "unit": "µM"}, {"measurement": "IC50", "setting": "[9]", "value": "> 1", "unit": "µM"}]}, {"smiles": "CC(C)(C)OC(=O)N1CCCC(OCCCc2ccc(NC(=O)NCc3ccc4c(c3)CN(C3CCC(=O)NC3=O)C4=O)cc2Cl)C1", "note": "(stereo not shown) [Compound A19]", "values": [{"measurement": "IC50", "setting": "[5]; read-out: SK-BR-3 IC50", "value": 0.00122, "unit": "µM"}, {"measurement": "DC50", "setting": "[6]", "value": 0.016, "unit": "µM"}]}, {"smiles": "O=C1CCC(N2Cc3cc(CNC(=O)Nc4ccc(CCCOC5CCNCC5)c(Cl)c4)ccc3C2=O)C(=O)N1", "note": "(stereo not shown) [Compound B61]", "values": [{"measurement": "IC50", "setting": "[1]", "value": "< 0.01", "unit": "µM"}, {"measurement": "IC50", "setting": "[2]", "value": "0.01 to 0.05", "unit": "µM"}, {"measurement": "IC50", "setting": "[3]", "value": "< 0.01", "unit": "µM"}, {"measurement": "IC50", "setting": "[4]", "value": "< 0.01", "unit": "µM"}, {"measurement": "IC50", "setting": "[5]; [20]", "value": "< 0.01", "unit": "µM"}, {"measurement": "CLint scaled at 1 µM", "setting": "[10]", "value": 7.03, "unit": "mL/min/kg"}, {"measurement": "CLint scaled at 1 h, 1 µM", "setting": "[10]", "value": 5.27, "unit": "mL/min/kg"}, {"measurement": "half-life at 1 µM", "setting": "[10]", "value": 4.12, "unit": "h"}, {"measurement": "CLint scaled at 1 µM", "setting": "[11]", "value": 13.7, "unit": "mL/min/kg"}, {"measurement": "CLint scaled at 1 h, 1 µM", "setting": "[11]", "value": 10.5, "unit": "mL/min/kg"}, {"measurement": "half-life at 1 µM", "setting": "[11]", "value": 2.47, "unit": "h"}, {"measurement": "CLint scaled at 1 µM", "setting": "[12]", "value": 11.8, "unit": "mL/min/kg"}, {"measurement": "CLint scaled at 1 h, 1 µM", "setting": "[12]", "value": 8.55, "unit": "mL/min/kg"}, {"measurement": "half-life at 1 µM", "setting": "[12]", "value": 4.88, "unit": "h"}, {"measurement": "CLint scaled at 1 µM", "setting": "[13]", "value": 19.8, "unit": "mL/min/kg"}, {"measurement": "CLint scaled at 1 h, 1 µM", "setting": "[13]", "value": 14.6, "unit": "mL/min/kg"}, {"measurement": "half-life at 1 µM", "setting": "[13]", "value": 2.08, "unit": "h"}, {"measurement": "CLint scaled at 1 µM", "setting": "[14]", "value": 32.2, "unit": "mL/min/kg"}, {"measurement": "CLint scaled at 1 h, 1 µM", "setting": "[14]", "value": 23.7, "unit": "mL/min/kg"}, {"measurement": "half-life at 1 µM", "setting": "[14]", "value": 2.9, "unit": "h"}, {"measurement": "Parent drug remaining %", "setting": "[15]", "value": 83.4, "unit": "%"}, {"measurement": "Parent drug remaining %", "setting": "[16]", "value": 79.4, "unit": "%"}, {"measurement": "Parent drug remaining %", "setting": "[17]", "value": 86.4, "unit": "%"}, {"measurement": "Parent drug remaining %", "setting": "[18]", "value": 71.0, "unit": "%"}, {"measurement": "Parent drug remaining %", "setting": "[19]", "value": 79.8, "unit": "%"}]}]}
